The term EC50 denotes the midpoint of the concentration-response curve.

The values below come from patent publication US20260078119A1, “DEGRADER COMPOUNDS AND USES THEREOF” (Bristol-Myers Squibb Company, priority 2024, published 2026).

The structures appear in SMILES notation.

One experiment relates to CAL-51 cells. The experiment can be described thus: CAL-51 Cell Proliferation Assay. The experiment is classed as cell-based. Conditions: for EC50: Homo sapiens, 120 hours incubation, 10-point dose response, 4-fold dilutions starting at 10 μM, Cell-Titer-Glo, read-out: CAL-51 Prolif EC50; for CAL-51 Prolif Ymin: minimal percent of DMSO control observed in the concentrations tested (Ymin-obs), 120 hours. In short, it runs like this: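 Cells seeded at 350/well in RPMI complete medium onto 10-point, 4-fold compound dilutions from 10 μM (0.1% DMSO), in duplicate, and grown 120 h at 37 °C. CellTiter-Glo luminescence, blank-subtracted and normalised to DMSO, was fitted with a four-parameter logistic to give EC50; Ymin-obs is the lowest observed percent of DMSO control.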

A further experiment addresses T1, FAK (Homo sapiens, UniProt Q05397).
T1 construct: homozygous knock-in of a HiBiT tag (Promega Corporation, Madison, WI) to the C-terminus of the FAK gene in its natural genomic locus; endogenous in cells; host or cells: JHH-4-FAK-HiBiT clone d01 (CRISPR-Cas9 knock-in at the endogenous locus)
In words: FAK-HiBiT Degradation Assay. The experiment is classed as cell-based. Conditions: for DC50: JHH-4-FAK-HiBiT clone d01 cells, two hours incubation, 10-point dose response, 3-fold dilution starting at 1 μM, Nano-Glo HiBiT luminescence, read-out: FAK HiBiT EC50; for FAK HiBiT Ymin: lower limit of the four parameter fit (value A), Ymax derived using DMSO control, JHH-4-FAK-HiBiT cells, two hours. In short, it runs like this:
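JHH-4 cells with homozygous CRISPR knock-in of C-terminal HiBiT on endogenous FAK, treated 2 h at 37 °C with compounds in 10-point 3-fold series from 1 μM. HiBiT lytic luminescence read; EC50 from four-parameter logistic fit, Ymax set by DMSO control, Ymin as lower fit limit.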
On the technique in general: The HiBiT peptide binds its large partner to form an active luciferase.

T1 sequence (Q05397 whole entry): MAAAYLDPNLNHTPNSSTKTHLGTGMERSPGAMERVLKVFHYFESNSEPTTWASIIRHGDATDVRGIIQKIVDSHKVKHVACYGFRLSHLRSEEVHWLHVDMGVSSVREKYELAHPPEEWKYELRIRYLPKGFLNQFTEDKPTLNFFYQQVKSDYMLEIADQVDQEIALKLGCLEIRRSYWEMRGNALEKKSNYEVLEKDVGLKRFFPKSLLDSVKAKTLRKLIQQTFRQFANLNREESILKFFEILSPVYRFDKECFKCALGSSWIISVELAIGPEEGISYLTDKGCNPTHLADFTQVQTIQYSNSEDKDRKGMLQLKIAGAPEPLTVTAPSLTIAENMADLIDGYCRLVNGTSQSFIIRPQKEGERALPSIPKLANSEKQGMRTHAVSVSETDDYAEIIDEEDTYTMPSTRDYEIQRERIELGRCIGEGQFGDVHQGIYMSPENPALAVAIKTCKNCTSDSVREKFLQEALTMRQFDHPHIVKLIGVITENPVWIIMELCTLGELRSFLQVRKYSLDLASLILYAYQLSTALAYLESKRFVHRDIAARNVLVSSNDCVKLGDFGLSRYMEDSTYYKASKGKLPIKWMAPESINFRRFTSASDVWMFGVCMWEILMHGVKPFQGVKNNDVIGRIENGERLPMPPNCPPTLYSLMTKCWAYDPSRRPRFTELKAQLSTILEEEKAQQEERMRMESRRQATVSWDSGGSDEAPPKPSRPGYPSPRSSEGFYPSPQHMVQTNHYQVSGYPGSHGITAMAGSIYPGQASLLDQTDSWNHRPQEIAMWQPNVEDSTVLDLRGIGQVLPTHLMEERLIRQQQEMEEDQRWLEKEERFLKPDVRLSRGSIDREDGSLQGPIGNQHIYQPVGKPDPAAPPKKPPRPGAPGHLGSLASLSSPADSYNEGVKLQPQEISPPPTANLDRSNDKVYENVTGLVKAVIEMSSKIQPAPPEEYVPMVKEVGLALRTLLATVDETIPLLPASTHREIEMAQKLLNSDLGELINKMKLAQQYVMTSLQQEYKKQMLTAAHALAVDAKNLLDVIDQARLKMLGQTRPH

With `O=C1CCC(N2Cc3cc(Cn4ncc5c(-c6ncc(C(F)F)cc6Cl)cc(N6CC(F)C6)nc54)ccc3C2=O)C(=O)N1` (stereo not shown) [Example 43, 3-[5-({4-[3-chloro-5-(difluoromethyl)pyridin-2-yl]-6-(3-fluoroazetidin-1-yl)-1H-pyrazolo[3,4-b]pyridin-1-yl}methyl)-1-oxo-2,3-dihydro-1H-isoindol-2-yl]piperidine-2,6-dione], in the experiment on CAL-51 cells, the EC50 is 155 nM and the “CAL-51 Prolif Ymin” value was determined as 51.95. For the same compound, at FAK, the DC50 came to 1.59 nM and the “FAK HiBiT Ymin” value is reported as 6.11.
The like results for `CCOc1cnc(-c2cc(N3CC(F)C3)nc3c2cnn3Cc2ccc3c(c2)CN(C2CCC(=O)NC2=O)C3=O)c(Cl)c1` (stereo not shown) [Example 44, 3-(5-{[4-(3-chloro-5-ethoxypyridin-2-yl)-6-(3-fluoroazetidin-1-yl)-1H-pyrazolo[3,4-b]pyridin-1-yl]methyl}-1-oxo-2,3-dihydro-1H-isoindol-2-yl)piperidine-2,6-dione] were, in that order, 0.69 nM, 28.22, 1.73 nM and 11.00.
For the compound `CC(C)Nc1cc(-c2ncc(C(F)(F)F)cc2Cl)c2cnn(Cc3ccc4c(c3)CN([C@H]3CCC(=O)NC3=O)C4=O)c2n1` [Example 45, (3S)-3-[5-({4-[3-chloro-5-(trifluoromethyl)pyridin-2-yl]-6-[(propan-2-yl)amino]-1H-pyrazolo[3,4-b]pyridin-1-yl}methyl)-1-oxo-2,3-dihydro-1H-isoindol-2-yl]piperidine-2,6-dione], in the experiment with CAL-51 cells, the EC50 stood at 0.76 nM and the “CAL-51 Prolif Ymin” value is 30.48. Besides, at FAK, the DC50 was 1.76 nM and the “FAK HiBiT Ymin” value worked out at 6.88.
The like results for `CCOc1cnc(-c2cc(N3CC(F)C3)nc3c2cnn3Cc2ccc3c(c2)CN(C2CCC(=O)NC2=O)C3=O)c(C#N)c1` (stereo not shown) [Example 46, 2-(1-{[2-(2,6-dioxopiperidin-3-yl)-1-oxo-2,3-dihydro-1H-isoindol-5-yl]methyl}-6-(3-fluoroazetidin-1-yl)-1H-pyrazolo[3,4-b]pyridin-4-yl)-5-ethoxypyridine-3-carbonitrile] were, in that order, 0.91 nM, 30.10, 1.79 nM and 8.57.
For `O=C1CC[C@H](N2Cc3cc(Cn4ncc5c(-c6ncc(Cl)cc6F)cc(N6CC(F)C6)nc54)ccc3C2=O)C(=O)N1` [Example 47, (3S)-3-(5-{[4-(5-chloro-3-fluoropyridin-2-yl)-6-(3-fluoroazetidin-1-yl)-1H-pyrazolo[3,4-b]pyridin-1-yl]methyl}-1-oxo-2,3-dihydro-1H-isoindol-2-yl)piperidine-2,6-dione], in that order: 1.96 nM, 39.85, 1.8 nM and 17.06.
The like results for `O=C1CCC(N2Cc3cc(Cn4ncc5c(-c6ccc(C(F)(F)F)cc6Cl)cc(N6CC(F)C6)nc54)ccc3C2=O)C(=O)N1` (stereo not shown) [Example 48, 3-[5-({4-[2-chloro-4-(trifluoromethyl)phenyl]-6-(3-fluoroazetidin-1-yl)-1H-pyrazolo[3,4-b]pyridin-1-yl}methyl)-1-oxo-2,3-dihydro-1H-isoindol-2-yl]piperidine-2,6-dione] were, in that order, 0.52 nM, 19.89, 1.87 nM and 8.06.
As for `O=C1CC[C@H](N2Cc3cc(Cn4ncc5c(-c6ncc(OC(F)F)cc6Cl)cc(N6CC(F)C6)nc54)ccc3C2=O)C(=O)N1` [Example 49, (3S)-3-[5-({4-[3-chloro-5-(difluoromethoxy)pyridin-2-yl]-6-(3-fluoroazetidin-1-yl)-1H-pyrazolo[3,4-b]pyridin-1-yl}methyl)-1-oxo-2,3-dihydro-1H-isoindol-2-yl]piperidine-2,6-dione], in the experiment on CAL-51 cells, the EC50 came out at 0.37 nM and the “CAL-51 Prolif Ymin” value is reported as 23.11. Further, at FAK, the DC50 stood at 2 nM and the “FAK HiBiT Ymin” value came to 7.78.
For `Cc1cc(Cl)cnc1-c1cc(N2CC(F)C2)nc2c1cnn2Cc1ccc2c(c1)CN([C@H]1CCC(=O)NC1=O)C2=O` [Example 50, (3S)-3-(5-{[4-(5-chloro-3-methylpyridin-2-yl)-6-(3-fluoroazetidin-1-yl)-1H-pyrazolo[3,4-b]pyridin-1-yl]methyl}-1-oxo-2,3-dihydro-1H-isoindol-2-yl)piperidine-2,6-dione], in the experiment on CAL-51 cells, the EC50 amounted to 2.12 nM and the “CAL-51 Prolif Ymin” value is on record as 27.72. For the same compound, at FAK, the DC50 was determined as 2.23 nM and the “FAK HiBiT Ymin” value turned out to be 5.82.
The like results for `O=C1CC[C@H](N2Cc3cc(Cn4ncc5c(-c6ncc(F)cc6Cl)cc(N6CC(F)C6)nc54)ccc3C2=O)C(=O)N1` [Example 51, (3S)-3-(5-{[4-(3-chloro-5-fluoropyridin-2-yl)-6-(3-fluoroazetidin-1-yl)-1H-pyrazolo[3,4-b]pyridin-1-yl]methyl}-1-oxo-2,3-dihydro-1H-isoindol-2-yl)piperidine-2,6-dione] were, in that order, 1.49 nM, 30.14, 2.23 nM and 10.32.
As for `O=C1CC[C@H](N2Cc3cc(Cn4ncc5c(-c6ccc(OCC(F)(F)F)cc6Cl)cc(N6CC(F)C6)nc54)ccc3C2=O)C(=O)N1` [Example 52, (3S)-3-[5-({4-[2-chloro-4-(2,2,2-trifluoroethoxy)phenyl]-6-(3-fluoroazetidin-1-yl)-1H-pyrazolo[3,4-b]pyridin-1-yl}methyl)-1-oxo-2,3-dihydro-1H-isoindol-2-yl]piperidine-2,6-dione], in the experiment with CAL-51 cells, the EC50 turned out to be 1.13 nM and the “CAL-51 Prolif Ymin” value turned out to be 22.49. Besides, on FAK, the DC50 worked out at 2.4 nM and the “FAK HiBiT Ymin” value was found to be 8.38.
`CN(c1cc(-c2ncc(F)cc2Cl)c2cnn(Cc3ccc4c(c3)CN(C3CCC(=O)NC3=O)C4=O)c2n1)C(F)(F)F` (stereo not shown) [Example 53, 3-(5-{[4-(3-chloro-5-fluoropyridin-2-yl)-6-[methyl (trifluoromethyl)amino]-1H-pyrazolo[3,4-b]pyridin-1-yl]methyl}-1-oxo-2,3-dihydro-1H-isoindol-2-yl)piperidine-2,6-dione]: in the experiment with CAL-51 cells, the EC50 amounted to 9.88 nM and the “CAL-51 Prolif Ymin” value was 39.88. On FAK, the DC50 worked out at 2.45 nM and the “FAK HiBiT Ymin” value was 7.24.
For `CC(C)Oc1cnc(-c2cc(N3CC(F)C3)nc3c2cnn3Cc2ccc3c(c2)CN([C@H]2CCC(=O)NC2=O)C3=O)c(Cl)c1` [Example 54, (3S)-3-[5-({4-[3-chloro-5-(propan-2-yloxy)pyridin-2-yl]-6-(3-fluoroazetidin-1-yl)-1H-pyrazolo[3,4-b]pyridin-1-yl}methyl)-1-oxo-2,3-dihydro-1H-isoindol-2-yl]piperidine-2,6-dione], in that order: 0.73 nM, 25.81, 2.47 nM and 6.69.
For `O=C1CCC(N2Cc3cc(Cn4ncc5c(-c6ncc(C(F)(F)F)cc6F)cc(N6CC(F)C6)nc54)ccc3C2=O)C(=O)N1` (stereo not shown) [Example 55, 3-[5-({4-[3-fluoro-5-(trifluoromethyl)pyridin-2-yl]-6-(3-fluoroazetidin-1-yl)-1H-pyrazolo[3,4-b]pyridin-1-yl}methyl)-1-oxo-2,3-dihydro-1H-isoindol-2-yl]piperidine-2,6-dione], in that order: 3.19 nM, 36.41, 3.13 nM and 20.64.
For `O=C1CCC(N2Cc3cc(Cn4ncc5c(-c6ncc(F)cc6Cl)cc(N6CC(F)C6)nc54)ccc3C2=O)C(=O)N1` (stereo not shown) [Example 56, 3-(5-{[4-(3-chloro-5-fluoropyridin-2-yl)-6-(3-fluoroazetidin-1-yl)-1H-pyrazolo[3,4-b]pyridin-1-yl]methyl}-1-oxo-2,3-dihydro-1H-isoindol-2-yl)piperidine-2,6-dione], in that order: 1.67 nM, 26.66, 3.72 nM and 10.37.
As for `Cc1cnc(-c2cc(N3CC(F)C3)nc3c2cnn3Cc2ccc3c(c2)CN(C2CCC(=O)NC2=O)C3=O)c(Cl)c1` (stereo not shown) [Example 57, 3-(5-{[4-(3-chloro-5-methylpyridin-2-yl)-6-(3-fluoroazetidin-1-yl)-1H-pyrazolo[3,4-b]pyridin-1-yl]methyl}-1-oxo-2,3-dihydro-1H-isoindol-2-yl)piperidine-2,6-dione], in the experiment with CAL-51 cells, the EC50 came out at 1.51 nM and the “CAL-51 Prolif Ymin” value is listed as 25.51. Besides, on FAK, the DC50 was determined as 3.41 nM and the “FAK HiBiT Ymin” value worked out at 8.26.
Consider `O=C1CCC(N2Cc3cc(Cn4ncc5c(-c6ncc(OCC(F)(F)F)cc6Cl)cc(N6CC(F)C6)nc54)ccc3C2=O)C(=O)N1` (stereo not shown) [Example 59, 3-[5-({4-[3-chloro-5-(2,2,2-trifluoroethoxy)pyridin-2-yl]-6-(3-fluoroazetidin-1-yl)-1H-pyrazolo[3,4-b]pyridin-1-yl}methyl)-1-oxo-2,3-dihydro-1H-isoindol-2-yl]piperidine-2,6-dione], for which, in the experiment on CAL-51 cells, the EC50 was 0.87 nM and the “CAL-51 Prolif Ymin” value is 28.60. For the same compound, on FAK, the DC50 turned out to be 3.54 nM and the “FAK HiBiT Ymin” value turned out to be 10.50.
